{
  "source": "patent US6693216B2",
  "about": "“Calcium double salts” (Nutrinova Nutrition Specialties & Food Ingredients GmbH, priority 2000, dated 2004)",
  "key": {"[1]": {"test_system": "Molds I", "details": "Part I, 1 g/l in apple juice pH 4.5, 25° C."}, "[2]": {"test_system": "Gram-positive bacteria", "details": "Part I, 1 g/l in apple juice pH 4.5, 25° C."}, "[3]": {"test_system": "Bacilli", "details": "Part I, 1 g/l in apple juice pH 4.5, 25° C."}, "[4]": {"details": "sealed", "source_text": "Salts prepared as in example 1 were dried, stored under the specified conditions without the addition of other substances and checked at regular intervals visually for discoloration: […]"}, "[5]": {"test_system": "Molds II", "details": "Part I, 1 g/l in apple juice pH 4.5, 25° C."}, "[6]": {"test_system": "Clostridia", "details": "Part I, 1 g/l in apple juice pH 4.5, 25° C."}, "[7]": {"test_system": "all microorganisms used"}, "[8]": {"test_system": "Acetic acid bacteria", "details": "Part I, 1 g/l in apple juice pH 4.5, 25° C."}, "[9]": {"test_system": "Lactic acid bacteria", "details": "Part I, 1 g/l in apple juice pH 4.5, 25° C."}, "[10]": {"test_system": "Thermophilic bacilli", "details": "Part I, 1 g/l in apple juice pH 4.5, 25° C."}, "[11]": {"test_system": "Yeasts", "details": "Part I, 1 g/l in apple juice pH 4.5, 25° C."}, "[12]": {"test_system": "Gram-negative bacteria", "details": "Part I, 1 g/l in apple juice pH 4.5, 25° C."}, "[13]": {"details": "1 day after inoculation (1.5 × 10^4)"}, "[14]": {"details": "3 days after inoculation (1.5 × 10^4)"}, "[15]": {"details": "7 days after inoculation (1.5 × 10^4)"}, "[16]": {"details": "14 days after inoculation (1.5 × 10^4)"}},
  "note": "Read-outs that look alike come from different tables or passages of the source.",
  "data": [
    {"compound": "C/C=C/C=C/C(=O)[O-].CCC(=O)[O-].[Ca+2]", "note": "[calcium propionate sorbate]", "values": [
      {"measurement": "Number of surviving microorganisms per g of contaminated sample, Molds I", "setting": "[1]; 1 day after inoculation (1.7 × 10^4)", "result": "4.0 × 10^3 CFU/g"},
      {"measurement": "Number of surviving microorganisms per g of contaminated sample, Molds I", "setting": "[1]; 3 days after inoculation (1.7 × 10^4)", "result": 700, "unit": "CFU/g"},
      {"measurement": "Number of surviving microorganisms per g of contaminated sample, Molds I", "setting": "[1]; 7 days after inoculation (1.7 × 10^4)", "result": "<100", "unit": "CFU/g"},
      {"measurement": "Number of surviving microorganisms per g of contaminated sample, Molds I", "setting": "[1]; 14 days after inoculation (1.7 × 10^4)", "result": "<10", "unit": "CFU/g"},
      {"measurement": "Number of surviving microorganisms per g of contaminated sample, Gram-positive bacteria", "setting": "[2]; 1 day after inoculation (2.6 × 10^4)", "result": "7.0 × 10^4 CFU/g"},
      {"measurement": "Number of surviving microorganisms per g of contaminated sample, Gram-positive bacteria", "setting": "[2]; 3 days after inoculation (2.6 × 10^4)", "result": "7.0 × 10^3 CFU/g"},
      {"measurement": "Number of surviving microorganisms per g of contaminated sample, Gram-positive bacteria", "setting": "[2]; 7 days after inoculation (2.6 × 10^4)", "result": 400, "unit": "CFU/g"},
      {"measurement": "Number of surviving microorganisms per g of contaminated sample, Gram-positive bacteria", "setting": "[2]; 14 days after inoculation (2.6 × 10^4)", "result": "<10", "unit": "CFU/g"},
      {"measurement": "Number of surviving microorganisms per g of contaminated sample, Bacilli", "setting": "[3]; [13]", "result": "2.3 × 10^4 CFU/g"},
      {"measurement": "Number of surviving microorganisms per g of contaminated sample, Bacilli", "setting": "[3]; [14]", "result": "1.4 × 10^3 CFU/g"},
      {"measurement": "Number of surviving microorganisms per g of contaminated sample, Bacilli", "setting": "[3]; [15]", "result": "1.3 × 10^3 CFU/g"},
      {"measurement": "Number of surviving microorganisms per g of contaminated sample, Bacilli", "setting": "[3]; [16]", "result": 50, "unit": "CFU/g"},
      {"measurement": "Time after yellow-brown discoloration of a 1% strength aqueous solution", "setting": "[4]; dark at 7° C.", "result": ">12", "unit": "months/>12 months"},
      {"measurement": "Time after yellow-brown discoloration of the powder", "setting": "[4]; dark at 7° C.", "result": 12, "unit": "months/>12 months"},
      {"measurement": "Time after yellow-brown discoloration of a 1% strength aqueous solution", "setting": "[4]; dark at 25° C.", "result": ">12", "unit": "months/>12 months"},
      {"measurement": "Time after yellow-brown discoloration of the powder", "setting": "[4]; dark at 25° C.", "result": 12, "unit": "months/>12 months"},
      {"measurement": "Time after yellow-brown discoloration of a 1% strength aqueous solution", "setting": "[4]; under sunlight at 7° C.", "result": 12, "unit": "months/12 months"},
      {"measurement": "Time after yellow-brown discoloration of the powder", "setting": "[4]; under sunlight at 7° C.", "result": 12, "unit": "months/12 months"},
      {"measurement": "Time after yellow-brown discoloration of a 1% strength aqueous solution", "setting": "[4]; under sunlight at 25° C.", "result": 12, "unit": "months/12 months"},
      {"measurement": "Time after yellow-brown discoloration of the powder", "setting": "[4]; under sunlight at 25° C.", "result": 12, "unit": "months/12 months"},
      {"measurement": "Number of surviving microorganisms per g of contaminated sample, Molds II", "setting": "[5]; [13]", "result": "1.1 × 10^3 CFU/g"},
      {"measurement": "Number of surviving microorganisms per g of contaminated sample, Molds II", "setting": "[5]; [14]", "result": 80, "unit": "CFU/g"},
      {"measurement": "Number of surviving microorganisms per g of contaminated sample, Molds II", "setting": "[5]; [15]", "result": 50, "unit": "CFU/g"},
      {"measurement": "Number of surviving microorganisms per g of contaminated sample, Molds II", "setting": "[5]; [16]", "result": "<10", "unit": "CFU/g"},
      {"measurement": "Number of surviving microorganisms per g of contaminated sample, Clostridia", "setting": "[6]; 1 day after inoculation (1.4 × 10^4)", "result": "1.3 × 10^3 CFU/g"},
      {"measurement": "Number of surviving microorganisms per g of contaminated sample, Clostridia", "setting": "[6]; 3 days after inoculation (1.4 × 10^4)", "result": 800, "unit": "CFU/g"},
      {"measurement": "Number of surviving microorganisms per g of contaminated sample, Clostridia", "setting": "[6]; 7 days after inoculation (1.4 × 10^4)", "result": 310, "unit": "CFU/g"},
      {"measurement": "Number of surviving microorganisms per g of contaminated sample, Clostridia", "setting": "[6]; 14 days after inoculation (1.4 × 10^4)", "result": 55, "unit": "CFU/g"},
      {"measurement": "Antimicrobial activity (words, general statement)", "setting": "[7]", "result": "inhibited particularly well"},
      {"measurement": "Preservative action against the microorganisms used", "setting": "[7]; 1 g/l in apple juice pH 4.5, up to 14 days", "result": "acts well and persistently against all microorganisms used, except for bacilli"},
      {"measurement": "Preservative action compared with the single salts", "setting": "[7]; same concentration, 1 g/l in apple juice pH 4.5", "result": "acts surprisingly better than potassium sorbate (used at the same concentration), in particular against lactic acid bacteria, thermophilic bacilli, yeasts and some molds (molds group II)"},
      {"measurement": "Number of surviving microorganisms per g of contaminated sample, Acetic acid bacteria", "setting": "[8]; 1 day after inoculation (2.3 × 10^4)", "result": "7.5 × 10^4 CFU/g"},
      {"measurement": "Number of surviving microorganisms per g of contaminated sample, Acetic acid bacteria", "setting": "[8]; 3 days after inoculation (2.3 × 10^4)", "result": "2.1 × 10^6 CFU/g"},
      {"measurement": "Number of surviving microorganisms per g of contaminated sample, Acetic acid bacteria", "setting": "[8]; 7 days after inoculation (2.3 × 10^4)", "result": "2.9 × 10^6 CFU/g"},
      {"measurement": "Number of surviving microorganisms per g of contaminated sample, Acetic acid bacteria", "setting": "[8]; 14 days after inoculation (2.3 × 10^4)", "result": "1.1 × 10^6 CFU/g"},
      {"measurement": "Number of surviving microorganisms per g of contaminated sample, Lactic acid bacteria", "setting": "[9]; 1 day after inoculation (1.9 × 10^4)", "result": "4.0 × 10^4 CFU/g"},
      {"measurement": "Number of surviving microorganisms per g of contaminated sample, Lactic acid bacteria", "setting": "[9]; 3 days after inoculation (1.9 × 10^4)", "result": "3.2 × 10^5 CFU/g"},
      {"measurement": "Number of surviving microorganisms per g of contaminated sample, Lactic acid bacteria", "setting": "[9]; 7 days after inoculation (1.9 × 10^4)", "result": "2.4 × 10^3 CFU/g"},
      {"measurement": "Number of surviving microorganisms per g of contaminated sample, Lactic acid bacteria", "setting": "[9]; 14 days after inoculation (1.9 × 10^4)", "result": 130, "unit": "CFU/g"},
      {"measurement": "Number of surviving microorganisms per g of contaminated sample, Thermophilic bacilli", "setting": "[10]; 1 day after inoculation (1.3 × 10^4)", "result": "1.1 × 10^3 CFU/g"},
      {"measurement": "Number of surviving microorganisms per g of contaminated sample, Thermophilic bacilli", "setting": "[10]; 3 days after inoculation (1.3 × 10^4)", "result": "<100", "unit": "CFU/g"},
      {"measurement": "Number of surviving microorganisms per g of contaminated sample, Thermophilic bacilli", "setting": "[10]; 7 days after inoculation (1.3 × 10^4)", "result": 10, "unit": "CFU/g"},
      {"measurement": "Number of surviving microorganisms per g of contaminated sample, Thermophilic bacilli", "setting": "[10]; 14 days after inoculation (1.3 × 10^4)", "result": 5, "unit": "CFU/g"},
      {"measurement": "Number of surviving microorganisms per g of contaminated sample, Yeasts", "setting": "[11]; 1 day after inoculation (2.5 × 10^4)", "result": "8.5 × 10^4 CFU/g"},
      {"measurement": "Number of surviving microorganisms per g of contaminated sample, Yeasts", "setting": "[11]; 3 days after inoculation (2.5 × 10^4)", "result": "5.0 × 10^4 CFU/g"},
      {"measurement": "Number of surviving microorganisms per g of contaminated sample, Yeasts", "setting": "[11]; 7 days after inoculation (2.5 × 10^4)", "result": "1.2 × 10^3 CFU/g"},
      {"measurement": "Number of surviving microorganisms per g of contaminated sample, Yeasts", "setting": "[11]; 14 days after inoculation (2.5 × 10^4)", "result": 10, "unit": "CFU/g"},
      {"measurement": "Number of surviving microorganisms per g of contaminated sample, Gram-negative bacteria", "setting": "[12]; 1 day after inoculation (2.4 × 10^4)", "result": "3.5 × 10^4 CFU/g"},
      {"measurement": "Number of surviving microorganisms per g of contaminated sample, Gram-negative bacteria", "setting": "[12]; 3 days after inoculation (2.4 × 10^4)", "result": "1.7 × 10^3 CFU/g"},
      {"measurement": "Number of surviving microorganisms per g of contaminated sample, Gram-negative bacteria", "setting": "[12]; 7 days after inoculation (2.4 × 10^4)", "result": 900, "unit": "CFU/g"},
      {"measurement": "Number of surviving microorganisms per g of contaminated sample, Gram-negative bacteria", "setting": "[12]; 14 days after inoculation (2.4 × 10^4)", "result": "<10", "unit": "CFU/g"}
    ]}
  ]
}
